# Data published in patent US6488164B2, “Compositions including modafinil for treatment of attention deficit hyperactivity disorder and multiple sclerosis fatigue” (Cephalon, Inc., priority 1999, dated 2002).
# Tests used:
# MS fatigue = details: cited from earlier work
# [1] = tested on: Fos-IR neurons in cingulate cortex, TMN, VTA; assay: Fos immunohistochemistry cell counts in rat brain, modafinil given at midnight (Example 1); assay type: in vivo; details: rats
# Experimental: (§1) Experimental Design: In the following examples, rats were sacrificed two hours following treatment, and the brains were analyzed using immunohistochemistry for Fos. In Examples 1 and 2, rats were instrumented for electroencephalogram (EEG) and electromyogram (EMG) recordings. To avoid the stress of handling during administration of modafinil or vehicle, chronic catheters were placed in the peritoneal cavity for administration of modafinil or vehicle.
# (§2) Animals and Recording Environment: 65, male, Sprague-Dawley rats (Harlan) weighing 270-330 g were housed individually in a pathogen-free barrier facility in a room maintained at 21.5-22.5° C. with lights on at 7 AM and off at 7 PM. Rats had food and water available ad lib. At least 3 days before each experiment, rats were placed into a light-tight, sound-attenuated recording chamber (Biocube) in an isolated room. Light intensity was 100-150 lux at midlevel inside each cage. The Institutional Animal Care and Use Committees of Beth Israel Deaconess Medical Center and Harvard Medical School approved all procedures.
# (§3) Animal Surgery: Under chloral hydrate anesthesia (350 mg/kg ip), the rats of Examples 1 and 2 were surgically implanted with four EEG screws (AP: +3, −4; RL: +2,−2 from bregma) lightly contacting the dura and two EMG wires (Plastics One, Roanoke, Va.) below the nuchal muscles. The leads were connected to a six channel connector (Plastics One) which was affixed to the skull with dental acrylic. A telemetric temperature transmitter (TA10TA-F40, Data Sciences International, St. Paul, Minn.) was placed in the peritoneal cavity of all but 5 rats. To administer drugs without handling the rats, an 80 cm silastic catheter (1 mm I.D., Baxter Scientific Products) was inserted into the peritoneal cavity, subcutaneously tunneled to the scalp, cemented in place with dental acrylic, and protected externally by a spring. This intraperitoneal catheter was filled with heparinized, pyrogen-free saline and flushed weekly and 3 days prior to the experiment. Animals recovered at least 14 days and then acclimated to recording cables for three days prior to the start of physiological recordings.
# (§4) Drug Administration: Modafinil (lot #PA 008; Cephalon, Inc., West Chester, Pa.) was suspended in a solution of 0.25% methylcellulose (pH=7.4, Dow Chemical Inc., Midland, Mich.) in 0.9% pyrogen-free saline. The drug was administered in a volume of 2.0 ml/kg at doses of 150 mg/kg. Control animals received an equal volume of methylcellulose vehicle. Catheters were then flushed with 1 ml 0.9% saline to assure delivery of drug into the peritoneal cavity. A red flashlight was used to aid injections performed in the dark.
# (§5) Histology and Immunohistochemistry: Two hours following drug injections, animals were deeply anesthetized with chloral hydrate (600 mg/kg ip) and transcardially perfused with 100 ml 0.9% saline followed by 500 ml of phosphate buffered 10% formalin, pH 7.0 (Sigma). Brains were removed, postfixed for 4 hours in formalin, and then allowed to equilibrate in 20% sucrose in 0.1 M phosphate buffered saline (PBS), with 0.02% sodium azide (Sigma) at 4° C. Brains were sectioned (1:5 series, 30 μm) on a freezing microtome and stored in PBS-azide at 4° C. One series from each brain was stained for Fos using previously described methods (Elmquist et al., 1996). […]
# [2] = tested on: Fos-IR neurons in VLPO, TMN, cortex; assay: Fos immunohistochemistry cell counts in rat brain, modafinil given at noon (Example 2); assay type: in vivo
# Experimental: as §1, §2, §3, §4, §5
# wakefulness [3] = details: rats, cats, canines, non-human primates; also sleep apnea and narcolepsy models; cited from earlier work
# [4] = tested on: TMN of the posterior hypothalamus; details: cats, wake-promoting dose; cited from earlier work
# TMN = details: rats, wake-promoting doses; cited from earlier work
# wakefulness [5] = details: cited from earlier work
# [6] = modafinil 150 mg/kg ip at midnight, 2 h after treatment, mean ± standard error, n=6
# [7] = rats on normal LD cycle, 150 mg/kg at noon
# [8] = rats, modafinil 150 mg/kg ip at noon, 2 h after treatment, n=7
compound,measurement,setting,value
"NC12CC3CC(CC(C3)C1)C2 [Amantadine, amantadine]",Patients with benefit in MS fatigue,"MS fatigue; double blind, randomized study",79%
"NC(=O)C[S+]([O-])C(c1ccccc1)c1ccccc1 (stereo not drawn) [Modafinil, modafinil]",Fos-IR neurons in TMN relative to controls,[1]; 150 mg/kg at midnight,four times as many
same,Fos immunoreactivity in the cortex versus controls,"[1]; 150 mg/kg at midnight, more pronounced in cingulate and pyriform cortex",more Fos immunoreactivity in the cortex than the controls
same,"Fos-IR cell count, TMN",[1]; [6],46 ± 4
same,"Fos-IR cell count, VTA",[1]; [6],12 ± 3
same,"Fos-IR cell count, cingulate cortex",[1]; [6],191 ± 38
same,Number of Fos-IR neurons in the TMN (in words),[2]; [7],markedly increased
same,Number of Fos-IR neurons in the VLPO (in words),[2]; [7],decreases
same,Expression of Fos in frontal and cingulate cortex (in words),"[2]; rats, 150 mg/kg at noon",increased expression of Fos
same,"Fos-IR cell count, TMN",[2]; [8],43 ± 5
same,"Fos-IR cell count, VLPO",[2]; [8],26 ± 3
same,Wakefulness (in words),wakefulness [3],promotes wakefulness
same,Activation of the TMN of the posterior hypothalamus (in words),[4],failed to cause activation of the TMN
same,Association of modafinil-induced wakefulness with activation of the TMN (in words),TMN,not associated with activation of the TMN
same,Tolerability in clinical trials,"wakefulness [5]; 400 mg/day, humans",well tolerated
same,Optimum wakefulness promoting dose,wakefulness [5]; adult humans,200 mg/day
same,Lower threshold of wake-promoting doses,"wakefulness [5]; human oral, known in the art",about 100 mg/day
NC1=NC(=O)C(c2ccccc2)O1 (stereo not drawn) [pemoline],Beneficial effect in MS fatigue (in words),"MS fatigue; same study, MS patients",failed to show a beneficial effect
